Two compounds from patent US20230017312A1, “CENTRALLY ACTIVE P38ALPHA INHIBITING COMPOUNDS” (Synovo GmbH, priority 2019, published 2023) can be followed below.

For series [1], the system named is TNFa. Description: LPS-stimulated TNFa production, spleen. Format: cell-based. Particulars: compound 10 nM.
In series [2] the test system is IL-6. Description: LPS-stimulated IL-6 production, hBuffy Coat. Particulars: compound 1 nM. Format: cell-based, human. Here is the method: (§1) The substances can be tested by mixing them with immune cells subject to stimulus and measuring the resulting inflammatory response. A standard assay involves the application of lipopolysaccharide (e.g. 10 μg/mL) to human blood derived immune cells and then detecting the concentration of cytokines (IL-6, TNFa) after 24 h. When tested in this way, the described compounds have the following effects as recorded in Table 2.

Series [3] concerns IL-6. Description: LPS-stimulated IL-6 production, spleen. It counts as cell-based. Particulars: compound 10 nM.
For series [4], the system named is IL-6. Description: LPS-stimulated IL-6 production, BL6 Blood. Particulars: compound 100 nM. It counts as cell-based.
For series [5], the system named is TNFa. Description: LPS-stimulated TNFa production, hBuffy Coat. It counts as cell-based, human. Particulars: compound 1 nM. Here is the method: as §1
In series [6] the test system is TNFa. Description: LPS-stimulated TNFa production, BL6 Blood. Format: cell-based. Particulars: compound 100 nM.

Consider `COC(=O)c1ccc2c(c1)C(=O)c1ccc(Nc3ccc(F)cc3F)cc1OC2` [Compound 15a, 3-((2,4-Difluorophenyl)amino)-11-oxo-6,11-dihydrobenzo[b,e]oxepin-9-carboxylmethylester], for which the melting point is 162.7 °C.

As for `C[S+]([O-])c1ccc(-c2nc(-c3ccncc3)c(-c3ccc(F)cc3)[nH]2)cc1` (stereo not shown) [SB203580], the “Amount of cytokine produced as % control: TNFa Spleen (100 ng LPS) 10 nM” value in series [1] turned out to be 11 % control. In addition, in series [2], the “Amount of cytokine produced as % control: IL-6 hBuffy Coat (100 ng LPS) 1 nM” value came to 61 % control. Besides, in series [3], the “Amount of cytokine produced as % control: IL_6 Spleen (100 ng LPS) 10 nM” value amounted to 10 % control. The “Amount of cytokine produced as % control: IL-6 BL6 Blood (500 ng LPS) 100 nM” value in series [4] was determined as 22 % control. In addition, the “Amount of cytokine produced as % control: TNFa hBuffy Coat (100 ng LPS) 1 nM” value in series [5] is given as 85 % control. For the same compound, in series [6], the “Amount of cytokine produced as % control: TNFa BL6 Blood (500 ng LPS) 100 nM” value was determined as 4 % control.

The term melting point denotes the temperature of the solid-liquid transition.
